Test results from patent US10738057B2, “Tertiary alcohols as PI3K-γ inhibitors” (Incyte Corporation, priority 2017, dated 2020).
Structures can show the parent of a compound that is named as a salt. Where two headings read alike, the source gives them in different places.

Legend:
[1] = system: Phosphorylated Ribosomal Protein S6 (RPS6) in THP-1 cells; experiment: THP-1 RPS6 ELISA assay; type: cell-based, Human; conditions: serum starved, 2 h compound, 10 nM MCP-1 for 15 min, phospho-RPS6 ELISA, read-out: PI3Kγ_THP1_RPS6_ELISA IC50
Procedure: Example A. THP-1 RPS6 ELISA Assay
To measure the Phosphorylated Ribosomal Protein S6 (RPS6) in cell lysates, THP-1 cells (Human Acute Monocytic Leukemia) are purchased from ATCC (Manassas, Va.) and maintained in RPMI with 10% FBS (Gibco/Life Technologies, Carlsbad, Calif.). For the assay, THP-1 cells are serum starved overnight in RPMI, then plated in RPMI (2×10^5 cells/well in 90 μL) into 96-well flat-bottom tissue culture treated plates (Corning, Corning, N.Y.), in the presence or absence of a concentration range of test compounds. Covered plates are incubated for 2 hours at 37° C., 5% CO2 then treated with or without 10 nM MCP-1 (MYBioSource, San Diego, Calif.) for 15 minutes at 37° C., 5% CO2. Plates are centrifuged at 1600 RPM and supernatants are removed. Cells are lysed in Lysis Buffer (Cell Signaling, Danvers, Mass.) with Protease Inhibitor (Calbiochem/EMD, Germany), PMSF (Sigma, St Louis Mo.), HALTS (Thermo Fisher, Rockford, Ill.) for 30 min on wet ice. Cell lysates are frozen at −80° C. before testing. The lysates are tested in the Human/Mouse/Rat Phospho-RPS6 ELISA (R&D Systems, Inc. Minn, Minn.). The plate is measured using a microplate reader (SpectraMax M5—Molecular Devices, LLC Sunnyvale, Calif.) set to 450 nm with a wavelength correction of 540. IC50 determination is performed by fitting the curve of inhibitor percent inhibition versus the log of the inhibitor concentration using the GraphPad Prism 5.0 software.

[2] = molecular target: PI3Kδ (p110δ/p85α) Recombinant Human Protein (Homo sapiens (Human), UniProt O00329); experiment: PI3Kδ scintillation proximity assay; type: biochemical; conditions: 20 μM PIP2, 2 μM ATP, 3.4 nM PI3Kδ, 120 min, room temperature; read-out: PI3Kδ IC50
Procedure: PI3Kδ Scintillation Proximity Assay
[γ-^33P]ATP (10 mCi/mL) and Wheat Germ Agglutinin (WGA) YSi SPA Scintillation Beads was purchased from PerkinElmer (Waltham, Mass.). […] PI3Kδ (p110δ/p85α) Recombinant Human Protein was purchased from Eurofins (St Charles, Mo.). ATP, MgCl2, DTT, EDTA, MOPS and CHAPS were purchased from SigmaAldrich (St. Louis, Mo.).
The kinase reaction was conducted in polystyrene 384-well Greiner Bio-one white plate from Thermo Fisher Scientific in a final volume of 25 μL. Inhibitors were first diluted serially in DMSO and added to the plate wells before the addition of other reaction components. The final concentration of DMSO in the assay was 2%. The PI3Kδ assay was carried out at room temperature in 20 mM MOPS, pH 6.7, 10 mM MgCl2, 5 mM DTT and CHAPS 0.03%. Reactions were initiated by the addition of ATP, the final reaction mixture consisted of 20 μM PIP2, 2 μM ATP, 0.5 μCi [γ-^33P] […] The final concentration of SPA beads is 1.0 mg/mL. After the plate sealing, plates were shaken overnight at room temperature and centrifuged at 1500 rpm for 10 min, the radioactivity of the product was determined by scintillation counting on Topcount (PerkinElmer). IC50 determination was performed by fitting the curve of percent of the solvent control activity versus the log of the inhibitor concentration using the GraphPad Prism 6.0 software.

[3] = molecular target: PI3Kγ (p110γ) Recombinant Human Protein (Homo sapiens (Human), UniProt P48736); experiment: PI3K-γ scintillation proximity assay; type: biochemical; conditions: 20 μM PIP2, 2 μM ATP, 13 nM PI3Kγ, 120 min, room temperature
Description: Example B. PI3K-γ Scintillation Proximity Assay
[γ-^33P]ATP (10 mCi/mL) and Wheat Germ Agglutinin (WGA) YSi SPA Scintillation Beads was purchased from PerkinElmer (Waltham, Mass.). Lipid kinase substrate, D-myo-Phosphatidylinositol 4,5-bisphosphate (PtdIns(4,5)P2)D (+)-sn-1,2-di-O-octanoylglyceryl, 3-O-phospho linked (PIP2), CAS 204858-53-7, was purchased from Echelon Biosciences (Salt Lake City, Utah). PI3Kγ (p110γ) Recombinant Human Protein was purchased from Life technology (Grand Island, N.Y.). ATP, MgCl2, DTT, EDTA, MOPS and CHAPS were purchased from SigmaAldrich (St. Louis, Mo.).
The kinase reaction was conducted in polystyrene 384-well Greiner Bio-one white plate from Thermo Fisher Scientific in a final volume of 25 μL. Inhibitors were first diluted serially in DMSO and added to the plate wells before the addition of other reaction components. The final concentration of DMSO in the assay was 2%. The PI3Kγ assay was carried out at room temperature in 20 mM MOPS, pH 6.7, 10 mM MgCl2, 5 mM DTT and CHAPS 0.03%. Reactions were initiated by the addition of ATP, the final reaction mixture consisted of 20 μM PIP2, 2 μM ATP, 0.5 μCi [γ-^33P] ATP, 13 nM PI3Kγ. Reactions were incubated for 120 min and terminated by the addition of 40 μL SPA beads suspended in quench buffer: 163 mM potassium phosphate pH 7.8, 20% glycerol, 25 mM EDTA. The final concentration of SPA beads is 1.0 mg/mL. After the plate sealing, plates were shaken overnight at room temperature and centrifuged at 1500 rpm for 10 min, the radioactivity of the product was determined by scintillation counting on Topcount (Perkin-Elmer). IC50 determination was performed by fitting the curve of percent of the solvent control activity versus the log of the inhibitor concentration using the GraphPad Prism 6.0 software.

[4] = Homo sapiens, THP-1, THP-1 cells

Chain of PI3Kγ (p110γ) Recombinant Human Protein (P48736 whole entry): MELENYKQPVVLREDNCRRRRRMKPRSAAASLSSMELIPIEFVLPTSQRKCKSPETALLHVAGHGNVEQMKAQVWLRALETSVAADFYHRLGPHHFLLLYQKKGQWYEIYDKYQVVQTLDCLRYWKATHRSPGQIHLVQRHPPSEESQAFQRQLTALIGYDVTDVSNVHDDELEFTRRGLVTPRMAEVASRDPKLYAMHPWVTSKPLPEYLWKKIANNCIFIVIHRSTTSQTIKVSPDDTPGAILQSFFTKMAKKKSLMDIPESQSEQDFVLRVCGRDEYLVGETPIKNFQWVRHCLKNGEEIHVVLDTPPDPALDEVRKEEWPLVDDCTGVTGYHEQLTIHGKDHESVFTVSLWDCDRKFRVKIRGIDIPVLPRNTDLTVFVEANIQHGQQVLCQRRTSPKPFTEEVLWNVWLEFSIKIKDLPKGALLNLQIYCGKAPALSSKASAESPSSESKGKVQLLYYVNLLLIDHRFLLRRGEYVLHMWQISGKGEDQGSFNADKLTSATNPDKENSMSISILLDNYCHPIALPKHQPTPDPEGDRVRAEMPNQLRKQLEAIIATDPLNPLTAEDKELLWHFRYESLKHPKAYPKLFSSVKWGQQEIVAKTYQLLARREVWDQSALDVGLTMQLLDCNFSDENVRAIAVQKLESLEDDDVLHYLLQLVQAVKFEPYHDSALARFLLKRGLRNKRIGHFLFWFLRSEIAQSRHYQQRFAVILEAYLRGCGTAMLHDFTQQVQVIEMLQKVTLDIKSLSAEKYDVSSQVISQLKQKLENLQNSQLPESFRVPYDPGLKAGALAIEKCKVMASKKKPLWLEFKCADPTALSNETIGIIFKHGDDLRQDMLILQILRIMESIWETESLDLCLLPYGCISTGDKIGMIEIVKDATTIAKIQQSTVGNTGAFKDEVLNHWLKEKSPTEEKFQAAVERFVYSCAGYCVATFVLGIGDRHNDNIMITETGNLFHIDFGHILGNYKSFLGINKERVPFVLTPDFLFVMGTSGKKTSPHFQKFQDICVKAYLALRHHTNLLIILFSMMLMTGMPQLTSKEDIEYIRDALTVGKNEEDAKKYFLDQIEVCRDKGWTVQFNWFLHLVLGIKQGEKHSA
Chain of PI3Kδ (p110δ/p85α) Recombinant Human Protein (O00329 whole entry): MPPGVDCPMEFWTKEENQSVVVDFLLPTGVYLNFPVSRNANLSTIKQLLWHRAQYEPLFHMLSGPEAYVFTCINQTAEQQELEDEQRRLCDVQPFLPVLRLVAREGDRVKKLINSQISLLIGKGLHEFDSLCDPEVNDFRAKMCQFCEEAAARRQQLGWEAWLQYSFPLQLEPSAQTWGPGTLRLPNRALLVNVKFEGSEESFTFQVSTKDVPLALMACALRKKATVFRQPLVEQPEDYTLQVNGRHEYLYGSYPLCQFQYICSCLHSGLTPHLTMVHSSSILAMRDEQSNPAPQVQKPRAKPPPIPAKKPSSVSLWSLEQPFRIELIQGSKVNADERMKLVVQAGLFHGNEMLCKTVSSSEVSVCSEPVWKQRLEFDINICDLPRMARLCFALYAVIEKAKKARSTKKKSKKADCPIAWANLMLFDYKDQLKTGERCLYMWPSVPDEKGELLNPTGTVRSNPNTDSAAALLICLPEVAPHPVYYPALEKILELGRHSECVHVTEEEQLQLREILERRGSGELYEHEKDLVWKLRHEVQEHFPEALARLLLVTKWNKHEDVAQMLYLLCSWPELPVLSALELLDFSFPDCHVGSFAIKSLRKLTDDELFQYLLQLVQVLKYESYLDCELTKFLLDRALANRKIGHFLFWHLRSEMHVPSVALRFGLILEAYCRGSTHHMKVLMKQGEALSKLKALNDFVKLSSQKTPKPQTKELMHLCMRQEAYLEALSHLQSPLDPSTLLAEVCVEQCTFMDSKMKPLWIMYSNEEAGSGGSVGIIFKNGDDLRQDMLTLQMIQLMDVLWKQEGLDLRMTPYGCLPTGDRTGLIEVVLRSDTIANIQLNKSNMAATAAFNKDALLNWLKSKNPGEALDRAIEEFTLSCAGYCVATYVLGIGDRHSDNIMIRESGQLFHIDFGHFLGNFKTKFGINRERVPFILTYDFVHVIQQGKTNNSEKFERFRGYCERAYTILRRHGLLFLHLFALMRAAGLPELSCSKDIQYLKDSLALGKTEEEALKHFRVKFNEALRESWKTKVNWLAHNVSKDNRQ
Chain of PI3Kδ (p110δ/p85α) Recombinant Human Protein (P27986 whole entry partner): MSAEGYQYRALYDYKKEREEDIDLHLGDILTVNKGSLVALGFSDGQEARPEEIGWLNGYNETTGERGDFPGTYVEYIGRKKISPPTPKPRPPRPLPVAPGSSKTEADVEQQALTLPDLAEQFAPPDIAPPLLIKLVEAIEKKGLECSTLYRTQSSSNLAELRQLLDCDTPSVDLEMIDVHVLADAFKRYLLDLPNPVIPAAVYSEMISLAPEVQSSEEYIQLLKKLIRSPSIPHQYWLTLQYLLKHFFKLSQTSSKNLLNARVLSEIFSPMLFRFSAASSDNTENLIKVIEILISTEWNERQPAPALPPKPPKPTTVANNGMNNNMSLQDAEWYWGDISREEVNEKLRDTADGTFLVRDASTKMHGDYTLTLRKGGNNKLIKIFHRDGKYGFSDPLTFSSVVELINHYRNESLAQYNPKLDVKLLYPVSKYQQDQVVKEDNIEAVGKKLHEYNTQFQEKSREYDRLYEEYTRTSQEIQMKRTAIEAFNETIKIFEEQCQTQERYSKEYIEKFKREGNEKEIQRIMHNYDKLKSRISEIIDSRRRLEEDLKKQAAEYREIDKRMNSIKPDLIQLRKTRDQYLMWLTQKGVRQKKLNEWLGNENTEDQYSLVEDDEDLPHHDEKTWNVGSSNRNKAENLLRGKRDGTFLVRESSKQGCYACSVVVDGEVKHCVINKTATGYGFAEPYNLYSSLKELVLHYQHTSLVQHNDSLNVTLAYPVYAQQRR

SMILES	IC50 ([1]; THP-1 cells) [nM]	IC50 [2] [nM]	IC50 [3] [nM]	IC50 [1, 4] [nM]
CNCCC(O)(c1ccc(C)c(-c2cnc3c(N)nc(C(F)(F)F)cn23)c1)C(F)(F)F (single isomer, unassigned) [Example 15, 2-(3-(8-Amino-6-(trifluoromethyl)imidazo[1,2-a]pyrazin-3-yl)-4-methylphenyl)-1,1,1-trifluoro-4-(methylamino)butan-2-ol]	100 to 500	100 to 500	< 100	–
CNCCC(O)(c1ccc(C)c(-c2cnc3c(N)nc(C(F)(F)F)cn23)c1)C(F)(F)F (single isomer, unassigned) [Example 16, 2-(3-(8-Amino-6-(trifluoromethyl)imidazo[1,2-a]pyrazin-3-yl)-4-methylphenyl)-1,1,1-trifluoro-4-(methylamino)butan-2-ol]	500 to 1000	100 to 500	< 100	–
[2H]C([2H])([2H])n1nccc1-c1cn2c(-c3cc(C(C)(O)C(F)F)ccc3C)cnc2c(N)n1 (single isomer, unassigned) [Example 25, 2-(3-(8-Amino-6-(1-(methyl-d3)-1H-pyrazol-5-yl)imidazo[1,2-a]pyrazin-3-yl)-4-methylphenyl)-1,1-difluoropropan-2-ol trifluoroacetate salt]	–	100 to 500	< 100	100 to 500
Cc1ccc(C(C)(O)C(F)F)cc1-c1cnc2c(N)nc(C(F)(F)F)cn12 (single isomer, unassigned) [Example 27, 2-(3-(8-Amino-6-(trifluoromethyl)imidazo[1,2-a]pyrazin-3-yl)-4-methylphenyl)-1,1-difluoropropan-2-ol]	100 to 500	100 to 500	< 100	–
Cc1ccc(C(C)(O)C(F)F)cc1-c1cnc2c(N)nc(-c3ccnc(CO)c3)cn12 (single isomer, unassigned) [Example 44, 2-(3-(8-Amino-6-(2-(hydroxymethyl)pyridin-4-yl)imidazo[1,2-a]pyrazin-3-yl)-4-methylphenyl)-1,1-difluoropropan-2-ol]	–	< 100	< 100	< 100
Cc1ccc(C(C)(O)C(F)F)cc1-c1cnc2c(N)nc(-c3ccnn3C)nn12 (single isomer, unassigned) [Example 51, 2-(3-(4-Amino-2-(1-methyl-1H-pyrazol-5-yl)imidazo[2,1-f][1,2,4]triazin-7-yl)-4-methylphenyl)-1,1-difluoropropan-2-ol trifluoroacetate salt]	–	< 100	< 100	< 100

Results, then the molecule that gave them:

IC50 ([1]; THP-1 cells) [nM]	IC50 [2] [nM]	IC50 [3] [nM]	IC50 [1, 4] [nM]	SMILES
500 to 1000	500 to 2000	< 100	–	Cc1ccc(C(C)(O)C(F)F)cc1-c1cnc2c(N)nc(C(F)(F)F)cn12 (single isomer, unassigned) [Example 26, 2-(3-(8-Amino-6-(trifluoromethyl)imidazo[1,2-a]pyrazin-3-yl)-4-methylphenyl)-1,1-difluoropropan-2-ol]
–	100 to 500	< 100	100 to 500	Cc1ccc(C(C)(O)C(F)F)cc1-c1cnc2c(N)nc(-c3ccnn3C)cn12 (single isomer, unassigned) [Example 29, 2-(3-(8-Amino-6-(1-methyl-1H-pyrazol-5-yl)imidazo[1,2-a]pyrazin-3-yl)-4-methylphenyl)-1,1-difluoropropan-2-ol 1.2 trifluoroacetate salt]
100 to 500	100 to 500	< 100	–	Cc1ccc(C(C)(O)C(F)F)cc1-c1cnc2c(N)nc(-c3ccnn3C)cn12 (single isomer, unassigned) [Example 30, 2-(3-(8-Amino-6-(1-methyl-1H-pyrazol-5-yl)imidazo[1,2-a]pyrazin-3-yl)-4-methylphenyl)-1,1-difluoropropan-2-ol]
100 to 500	< 100	< 100	–	Cc1ccc(C(C)(O)C(F)F)cc1-c1cnc2c(N)nc(-c3ccnc(CO)c3)cn12 (single isomer, unassigned) [Example 45, 2-(3-(8-Amino-6-(2-(hydroxymethyl)pyridin-4-yl)imidazo[1,2-a]pyrazin-3-yl)-4-methylphenyl)-1,1-difluoropropan-2-ol]
